Counter-ions that a name gives are not always drawn.
Target: T1, c-Met (Homo sapiens, UniProt P08581)
Assay: c-Met inhibitory assay using AlphaScreen (Method A)
Assay type: biochemical
Parameters: purchased Carna bio Co., Ltd 08-051
Conditions: ATP 20 μM
Description: Inhibitory activity of compounds against c-Met kinase was determined through the following procedures. Method A) c-Met inhibitory assay using AlphaScreen™
Target sequence in this assay (P08581 956-1390 limits assumed): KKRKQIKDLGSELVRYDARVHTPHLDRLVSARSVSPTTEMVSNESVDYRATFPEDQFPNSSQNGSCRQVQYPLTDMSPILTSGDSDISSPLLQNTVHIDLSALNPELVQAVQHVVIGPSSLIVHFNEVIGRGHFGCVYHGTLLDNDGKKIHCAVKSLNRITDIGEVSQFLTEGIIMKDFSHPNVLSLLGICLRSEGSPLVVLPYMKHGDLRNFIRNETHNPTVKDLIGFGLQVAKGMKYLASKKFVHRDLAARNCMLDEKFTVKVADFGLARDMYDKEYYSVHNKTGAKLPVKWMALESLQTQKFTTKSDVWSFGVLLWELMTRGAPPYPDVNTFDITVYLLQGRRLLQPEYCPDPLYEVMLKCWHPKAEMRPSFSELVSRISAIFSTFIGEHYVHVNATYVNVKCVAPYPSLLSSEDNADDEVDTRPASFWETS
A biotinylated peptide including a phosphorylated site of Pyk2 (Tyr402), which is reported as a bio-substrate in Clin. Cancer Res. vol. […] The mixture was allowed to react at room temperature for 20 minutes. EDTA was added to the reaction mixture to a final concentration of 50 mM, to thereby terminate reaction. […] The reaction was done for one hour at room temperature. Thereafter, the fluorescence intensity from the reaction mixture was measured using a multi-label counter (EnVision™, Perkin Elmer).

Question: For `COc1cc2nccc(Oc3ccc(NC(=S)NC(=O)Cc4ccccc4)cc3F)c2cc1C(=O)NCCCOC(C)C` [Example 1, 4-(2-Fluoro-4-(3-(2-phenylacetyl)thioureido)phenoxy)-N-(3-isopropyloxypropyl)-7-methoxyquinoline-6-carboxamide], which IC50 is on record?
Answer: 210 nM

Question: `COc1cc2nccc(Oc3ccc(NC(=S)NC(=O)Cc4ccccc4)cc3F)c2cc1C(=O)NCC1COC(C)(C)O1` (stereo not drawn) [Example 2, N-((2,2-Dimethyl-1,3-dioxolan-4-yl)methyl)-4-(2-fluoro-4-(3-(2-phenylacetyl)thioureido)phenoxy)-7-methoxyquinoline-6-carboxamide] was tested. Which IC50 did it give?
Answer: 167 nM

Question: Which IC50 does the source give for `COc1cc2nccc(Oc3ccc(NC(=S)NC(=O)Cc4ccccc4)cc3F)c2cc1C(=O)NCC(O)CO` (stereo not drawn) [Example 3, N-(2,3-Dihydroxypropyl)-4-(2-fluoro-4-(3-(2-phenylacetyl)thioureido)phenoxy)-7-methoxyquinoline-6-carboxamide] here?
Answer: 62 nM

Question: How did the IC50 turn out when `COc1cc2nccc(Oc3ccc(NC(=S)NC(=O)Cc4ccccc4)cc3F)c2cc1C(=O)NCc1cccnc1` [Example 4, 4-(2-Fluoro-4-(3-(2-phenylacetyl)thioureido)phenoxy)-7-methoxy-N-(pyridin-3-ylmethyl)quinoline-6-carboxamide] was run?
Answer: 140 nM

Question: With `CNC(=O)c1cc2c(Oc3ccc(NC(=S)NC(=O)Cc4ccccc4)cc3F)ccnc2cc1OC` [Example 6, 4-(2-Fluoro-4-(3-(2-phenylacetyl)thioureido)phenoxy)-7-methoxy-N-methylquinoline-6-carboxamide] as the molecule, how does the IC50 read?
Answer: 104 nM

Question: With `COCCNC(=O)c1cc2c(Oc3ccc(NC(=S)NC(=O)Cc4ccccc4)cc3F)ccnc2cc1OC` [Example 7, 4-(2-Fluoro-4-(3-(2-phenylacetyl)thioureido)phenoxy)-7-methoxy-N-(methoxyethyl)quinoline-6-carboxamide] as the molecule, how does the IC50 read?
Answer: 50 nM

Question: `CCN(CC)CCNC(=O)c1cc2c(Oc3ccc(NC(=S)NC(=O)Cc4ccccc4)cc3F)ccnc2cc1OC` [Example 8, N-(2-(Diethylamino)ethyl)-4-(2-fluoro-4-(3-(2-phenylacetyl)thioureido)phenoxy)-7-methoxyquinoline-6-carboxamide] was tested. Which IC50 did it give?
Answer: 106 nM

Question: How did the IC50 turn out when `COc1cc2nccc(Oc3ccc(NC(=S)NC(=O)Cc4ccccc4)cc3F)c2cc1C(=O)NCCN1CCOCC1` [Example 9, 4-(2-Fluoro-4-(3-(2-phenylacetyl)thioureido)phenoxy)-7-methoxy-N-(2-morpholinoethyl)quinoline-6-carboxamide] was run?
Answer: 102 nM

Question: Which IC50 does the source give for `COc1cc2nccc(Oc3ccc(NC(=S)NC(=O)Cc4ccccc4)cc3F)c2cc1C(=O)NCCOCCO` [Example 10, 4-(2-Fluoro-4-(3-(2-phenylacetyl)thioureido)phenoxy)-N-(2-(2-hydroxyethoxy)ethyl)-7-methoxyquinoline-6-carboxamide] here?
Answer: 68 nM

Question: Which IC50 does the source give for `COc1cc2nccc(Oc3ccc(NC(=S)NC(=O)Cc4ccccc4)cc3F)c2cc1C(=O)NCCNC(C)=O` [Example 11, N-(2-Acetamidoethyl)-4-(2-fluoro-4-(3-(2-phenylacetyl)thioureido)phenoxy)-7-methoxyquinoline-6-carboxamide] here?
Answer: 145 nM

Question: Which IC50 does the source give for `COc1cc2nccc(Oc3ccc(NC(=S)NC(=O)Cc4ccccc4)cc3F)c2cc1C(=O)NC(CO)CO` [Example 12, N-(1,3-Dihydroxypropan-2-yl)-4-(2-fluoro-4-(3-(2-phenylacetyl)thioureido)phenoxy)-7-methoxyquinoline-6-carboxamide] here?
Answer: 52 nM

Question: Which IC50 does the source give for `COc1cc2nccc(Oc3ccc(NC(=S)NC(=O)Cc4ccccc4)cc3F)c2cc1C(=O)NC1CCNCC1` [Example 14, 4-(2-Fluoro-4-(3-(2-phenylacetyl)thioureido)phenoxy)-7-methoxy-N-(piperidin-4-yl)quinoline-6-carboxamide dihydrochloride] here?
Answer: 157 nM

Question: Which IC50 does the source give for `COc1cc2nccc(Oc3ccc(NC(=S)NC(=O)Cc4ccccc4)cc3F)c2cc1C(=O)NC1CCCCNC1=O` (stereo not drawn) [Example 16, 4-(2-Fluoro-4-(3-(2-phenylacetyl)thioureido)phenoxy)-7-methoxy-N-(2-oxoazepan-3-yl)quinoline-6-carboxamide] here?
Answer: 177 nM

Question: For `COc1cc2nccc(Oc3ccc(NC(=S)NC(=O)Cc4ccccc4)cc3F)c2cc1C(=O)NCC(=O)N1CCCC1` [Example 17, 4-(2-Fluoro-4-(3-(2-phenylacetyl)thioureido)phenoxy)-7-methoxy-N-(2-oxo-2-(pyrrolidin-1-yl)ethyl)quinoline-6-carboxamide], which IC50 is on record?
Answer: 30 nM

Question: `COc1cc2nccc(Oc3ccc(NC(=S)NC(=O)Cc4ccccc4)cc3F)c2cc1C(=O)NC1CCN(C(C)=O)CC1` [Example 18, N-(1-Acetylpiperidin-4-yl)-4-(2-fluoro-4-(3-(2-phenylacetyl)thioureido)phenoxy)-7-methoxyquinoline-6-carboxamide] was tested. Which IC50 did it give?
Answer: 300 nM

Question: For `CCC(O)CNC(=O)c1cc2c(Oc3ccc(NC(=S)NC(=O)Cc4ccc(F)cc4)cc3F)ccnc2cc1OC` (stereo not drawn) [Example 23, 4-(2-Fluoro-4-(3-(2-(4-fluorophenyl)acetyl)thioureido)phenoxy)-N-(2-hydroxybutyl)-7-methoxyquinoline-6-carboxamide], which IC50 is on record?
Answer: 250 nM

Question: For `COc1cc2nccc(Oc3ccc(NC(=S)NC(=O)Cc4ccccc4)cc3F)c2cc1C(=O)NCC1(O)CCCCC1` [Example 25, 4-(2-Fluoro-4-(3-(2-phenylacetyl)thioureido)phenoxy)-N-((1-hydroxycyclohexyl)methyl)-7-methoxyquinoline-6-carboxamide], which IC50 is on record?
Answer: 72 nM

Question: Which IC50 does the source give for `COc1cc2nccc(Oc3ccc(NC(=S)NC(=O)Cc4ccccc4)cc3F)c2cc1C(=O)NCC1(O)CCOCC1` [Example 26, 4-(2-Fluoro-4-(3-(2-phenylacetyl)thioureido)phenoxy)-N-((4-hydroxytetrahydro-2H-pyran-4-yl)methyl)-7-methoxyquinoline-6-carboxamide] here?
Answer: 125 nM

Question: Which IC50 does the source give for `COc1cc2nccc(Oc3ccc(NC(=S)NC(=O)Cc4ccccc4)cc3F)c2cc1C(=O)Nc1ccccc1C` [Example 28, 4-(2-Fluoro-4-(3-(2-phenylacetyl)thioureido)phenoxy)-7-methoxy-N-o-tolylquinoline-6-carboxamide] here?
Answer: 94 nM

Question: For `COc1cc2nccc(Oc3ccc(NC(=S)NC(=O)Cc4ccccc4)cc3F)c2cc1C(=O)N[C@H](CO)c1ccccc1` [Example 29, (S)-4-(2-Fluoro-4-(3-(2-phenylacetyl)thioureido)phenoxy)-N-(2-hydroxy-1-phenylethyl)-7-methoxyquinoline-6-carboxamide], which IC50 is on record?
Answer: 234 nM

Question: `COc1cc2nccc(Oc3ccc(NC(=S)NC(=O)Cc4ccccc4)cc3F)c2cc1C(=O)NCC(O)c1nnn(C)n1` (stereo not drawn) [Example 30, 4-(2-Fluoro-4-(3-(2-phenylacetyl)thioureido)phenoxy)-N-(2-hydroxy-2-(2-methyl-2H-tetrazol-5-yl)ethyl)-7-methoxyquinoline-6-carboxamide] was tested. Which IC50 did it give?
Answer: 40 nM

Question: For `COc1cc2nccc(Oc3ccc(NC(=S)NC(=O)Cc4ccccc4)cc3F)c2cc1C(=O)N1CCC(N2CCCC2)CC1` [Example 51, N-(3-Fluoro-4-(7-methoxy-6-(4-(pyrrolidin-1-yl)piperidine-1-carbonyl)quinolin-4-yloxy)phenylcarbamothioyl)-2-phenylacetamide], which IC50 is on record?
Answer: 134 nM

Question: Which IC50 does the source give for `COc1cc2nccc(Oc3ccc(NC(=S)NC(=O)Cc4ccccc4)cc3F)c2cc1C(=O)N1CCC(O)C1` (stereo not drawn) [Example 52, N-(3-Fluoro-4-(6-(3-hydroxypyrrolidine-1-carbonyl)-7-methoxyquinolin-4-yloxy)phenylcarbamothioyl)-2-phenylacetamide] here?
Answer: 142 nM

Target: T1, c-Met
Assay: c-Met inhibitory assay using DeskTop Profiler (Method B)
Assay type: biochemical
Parameters: made in house
Conditions: ATP 43 μM
Description: Method B) c-Met Inhibitory Assay Using DeskTop Profiler
A dephosphorylation enzyme inhibitor cocktail (PhosSTOP, #4906837, product of Roche) and a protease inhibitor cocktail (Complete, Mini, EDTA-free, #1836170; product of Roche) were added to a reaction buffer (100 mM HEPES (pH: 7.5), 10 mM MgCl2, 0.003% Brij-35, 0.04% Tween, and 1 mM DTT). In the presence of the compound of the present invention, recombinant c-Met (purified product of Taiho Pharmaceutical Co., Ltd.), fluorescence-labeled c-Met substrate peptide (FL-Peptide 2, #760346, Caliper Life Sciences) (final concentration: 1.5 μM), and ATP (final concentration: 43 μM) were added thereto, and the mixture was allowed to react at 28° C. for 90 minutes. EDTA was added to the reaction mixture to a final concentration of 10 mM, to thereby terminate reaction. By use of DeskTop Profiler (#119900, Caliper Life Sciences), each fluorescence intensity of the substrate and that of the phosphorylated product was determined, whereby the amount of the formed phosphorylated product was determined. The compound concentration that realizes 50% inhibition of formation of phosphorylated product was defined as IC50 (μM), and the results are shown in the following Tables.
Target sequence in this assay (P08581 25-1390): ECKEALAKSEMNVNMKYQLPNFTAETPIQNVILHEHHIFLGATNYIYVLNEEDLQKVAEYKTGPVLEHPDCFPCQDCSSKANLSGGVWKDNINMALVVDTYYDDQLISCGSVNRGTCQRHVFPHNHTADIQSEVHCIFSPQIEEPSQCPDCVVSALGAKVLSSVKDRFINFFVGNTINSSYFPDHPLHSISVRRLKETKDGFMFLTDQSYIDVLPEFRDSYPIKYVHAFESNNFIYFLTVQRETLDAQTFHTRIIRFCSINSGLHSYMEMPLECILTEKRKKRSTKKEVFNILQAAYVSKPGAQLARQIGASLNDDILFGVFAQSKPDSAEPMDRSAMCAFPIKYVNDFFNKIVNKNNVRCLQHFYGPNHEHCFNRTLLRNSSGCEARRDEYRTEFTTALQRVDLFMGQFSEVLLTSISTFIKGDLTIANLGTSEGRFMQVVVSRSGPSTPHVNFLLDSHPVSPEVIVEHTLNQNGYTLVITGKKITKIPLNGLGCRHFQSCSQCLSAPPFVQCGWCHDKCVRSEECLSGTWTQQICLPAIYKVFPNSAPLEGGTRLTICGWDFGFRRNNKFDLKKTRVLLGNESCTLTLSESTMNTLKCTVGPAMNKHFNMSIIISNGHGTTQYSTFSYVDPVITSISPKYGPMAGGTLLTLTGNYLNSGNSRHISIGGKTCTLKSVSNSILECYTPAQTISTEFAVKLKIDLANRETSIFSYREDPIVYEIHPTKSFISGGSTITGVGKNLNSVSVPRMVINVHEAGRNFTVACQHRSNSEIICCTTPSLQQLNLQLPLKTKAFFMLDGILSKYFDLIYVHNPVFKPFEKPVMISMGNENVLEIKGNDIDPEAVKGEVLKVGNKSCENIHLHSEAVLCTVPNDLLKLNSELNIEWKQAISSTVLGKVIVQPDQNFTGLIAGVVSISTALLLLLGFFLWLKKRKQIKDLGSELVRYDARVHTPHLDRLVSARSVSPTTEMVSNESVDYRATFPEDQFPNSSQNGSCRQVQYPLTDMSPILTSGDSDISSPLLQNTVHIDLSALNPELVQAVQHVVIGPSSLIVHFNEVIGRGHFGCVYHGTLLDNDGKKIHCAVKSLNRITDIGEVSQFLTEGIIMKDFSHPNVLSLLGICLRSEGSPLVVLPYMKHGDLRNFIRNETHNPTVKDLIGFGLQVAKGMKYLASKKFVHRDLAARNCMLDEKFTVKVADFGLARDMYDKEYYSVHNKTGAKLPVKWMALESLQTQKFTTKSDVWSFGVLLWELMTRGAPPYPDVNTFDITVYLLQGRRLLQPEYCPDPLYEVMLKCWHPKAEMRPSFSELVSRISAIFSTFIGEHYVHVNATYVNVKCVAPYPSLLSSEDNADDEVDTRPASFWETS

Question: With `CC[C@@H](CO)NC(=O)c1cc2c(Oc3ccc(NC(=S)NC(=O)Cc4ccccc4)cc3F)ccnc2cc1OC` [Example 31, (S)-4-(2-Fluoro-4-(3-(2-phenylacetyl)thioureido)phenoxy)-N-(1-hydroxybutan-2-yl)-7-methoxyquinoline-6-carboxamide] as the molecule, how does the IC50 read?
Answer: 26 nM

Question: For `COCCNC(=O)CNC(=O)c1cc2c(Oc3ccc(NC(=S)NC(=O)Cc4ccccc4)cc3F)ccnc2cc1OC` [Example 33, 4-(2-Fluoro-4-(3-(2-phenylacetyl)thioureido)phenoxy)-7-methoxy-N-(2-(2-methoxyethylamino)-2-oxoethyl)quinoline-6-carboxamide], which IC50 is on record?
Answer: 12 nM

Question: Which IC50 does the source give for `CCN(CC(C)(C)O)C(=O)CNC(=O)c1cc2c(Oc3ccc(NC(=S)NC(=O)Cc4ccccc4)cc3F)ccnc2cc1OC` [Example 35, N-(2-(Ethyl(2-hydroxy-2-methylpropyl)amino)-2-oxoethyl)-4-(2-fluoro-4-(3-(2-phenylacetyl)thioureido)phenoxy)-7-methoxyquinoline-6-carboxamide] here?
Answer: 31 nM

Question: `COc1cc2nccc(Oc3ccc(NC(=S)NC(=O)Cc4ccccc4)cc3F)c2cc1C(=O)NCCC(=O)N(C)C` [Example 36, N-(3-(Dimethylamino)-3-oxopropyl)-4-(2-fluoro-4-(3-(2-phenylacetyl)thioureido)phenoxy)-7-methoxyquinoline-6-carboxamide] was tested. Which IC50 did it give?
Answer: 52 nM
